For one assay, the target named is T1, human ETA receptors (Homo sapiens, UniProt P25101).
T1 construct: host or cells: TE 671 cells (membranes)
T1 sequence (P25101 21-427): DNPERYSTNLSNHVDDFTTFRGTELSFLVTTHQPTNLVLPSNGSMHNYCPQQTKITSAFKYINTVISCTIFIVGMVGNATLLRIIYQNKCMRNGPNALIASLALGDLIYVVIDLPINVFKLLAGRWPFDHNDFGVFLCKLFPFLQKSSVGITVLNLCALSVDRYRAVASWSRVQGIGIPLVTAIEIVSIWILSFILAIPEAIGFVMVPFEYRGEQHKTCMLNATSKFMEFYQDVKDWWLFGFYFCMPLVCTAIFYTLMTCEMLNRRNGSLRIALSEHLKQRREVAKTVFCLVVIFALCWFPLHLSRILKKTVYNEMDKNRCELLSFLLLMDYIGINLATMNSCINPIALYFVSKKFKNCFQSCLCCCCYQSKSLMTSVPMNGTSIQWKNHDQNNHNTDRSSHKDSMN
Kind of assay: Binding Test #1: inhibition of 125I-endothelin-1 binding to ETA receptors (TE 671 cell membranes). The note with it: incubation at 24° C.; generally the average of 2 to 3 experiments. An excerpt: (§1) Compounds that are potential endothelin antagonists are identified by testing their ability to compete with ^125I-labeled ET-1 for binding to human ETA receptors or ETB receptors present on isolated cell membranes. The effectiveness of the test compound as an antagonist or agonist of the biological tissue response of endothelin can also be assessed by measuring the effect on endothelin induced contraction of isolated rat thoracic aortic rings. The ability of the compounds to act as antagonists or agonists for ETB receptors can be assess by testing the ability of the compounds are to inhibit endothelin-1 induced prostacyclin release from cultured bovine aortic endothelial cells.
TE 671 cells (ATCC Accession No. HTB 139) express ETA receptors. These cells were grown to confluence in T-175 flasks. Cells from multiple flasks were collected by scraping, pooled and centrifuged for 10 min at 190×g. The cells were resuspended in phosphate buffered saline (PBS) containing 10 mM EDTA using a Tenbroeck homogenizer. The suspension was centrifuged at 4° C. at 57,800×g for 15 min, the pellet was resuspended in 5 ml of buffer A (5 mM HEPES buffer, pH 7.4 containing aprotinin (100 KIU/ml)) and then frozen and thawed once. 5 ml of Buffer B (5 mM HEPES Buffer, pH 7.4 containing 10 mM MnCl2 and 0.001 % deoxyribonuclease Type 1) was added, the suspension mixed by inversion and then incubated at 37° C. for 30 minutes. The mixture was centrifuged at 57,800×g as described above, the pellet washed twice with buffer A and then resuspended in buffer C (30 mM HEPES buffer, pH 7.4 containing aprotinin (100 KIU/ml) to give a final protein concentration of 2 mg/ml and stored at −70° C. until use.
The membrane suspension was diluted with binding buffer (30 mM HEPES buffer, pH 7.4 containing 150 mM NaCl, 5 mM MgCl2, 0.5% Bacitracin) to a concentration of 8 μg/50, μl. ^125I-endothelin-1 (3,000 cpm, […]) was added to 50 μl of either: (A) endothelin-1 (for non specific binding) to give a final concentration 80 nM); (B) binding buffer (for total binding); or (C) a test compound (final concentration 1 nM to 100 μM). The membrane suspension (50 μl), containing up to 8 μg of membrane protein, was added to each of (A), (B), or (C). Mixtures were shaken, and incubated at 4° C. for 16-18 hours, and then centrifuged at 4° C. for 25 min at 2,500×g. Alternatively, the incubation was conducted at 24° C. When incubated at 24° C., the IC50 concentrations are 2- to 10-fold higher than when the incubation is conducted at 4° C. This, must be kept in mind when comparing IC50 concentrations among compounds provided herein.
The supernatant, containing unbound radioactivity, was decanted and the pellet counted on a Genesys multiwell gamma counter. The degree of inhibition of binding (D) was calculated according to the following equation: [formula]
Each test was generally performed in triplicate.

The target in a further assay is T2, human ETB receptor (Homo sapiens, UniProt P24530).
T2 construct: expressed in transfected cells; host or cells: COS7 cells
T2 sequence (P24530 27-442): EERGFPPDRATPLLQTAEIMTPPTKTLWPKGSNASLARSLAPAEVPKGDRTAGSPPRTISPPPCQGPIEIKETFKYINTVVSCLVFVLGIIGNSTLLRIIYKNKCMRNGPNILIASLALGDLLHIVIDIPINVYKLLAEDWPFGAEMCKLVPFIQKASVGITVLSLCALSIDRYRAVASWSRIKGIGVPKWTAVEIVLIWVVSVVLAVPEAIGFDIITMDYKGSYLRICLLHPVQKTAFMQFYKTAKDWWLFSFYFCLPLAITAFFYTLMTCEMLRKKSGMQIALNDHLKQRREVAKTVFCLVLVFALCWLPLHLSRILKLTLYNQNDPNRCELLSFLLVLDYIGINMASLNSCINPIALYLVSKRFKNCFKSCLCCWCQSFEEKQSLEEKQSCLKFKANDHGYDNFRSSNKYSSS
Briefly: Binding Test #2: inhibition of 125I-endothelin-1 binding to ETB receptors (transfected COS7 cell membranes). The note with it: incubation at 24° C.; generally the average of 2 to 3 experiments.
Excerpt: as §1
COS7 cells were transfected with DNA encoding the ETB receptor, The resulting cells, which express the human ETB receptor, were grown to confluence in T-150 flasks. Membrane was prepared as described above. The binding assay was performed as described above using the membrane preparation diluted with binding buffer to a concentration of 1 μg/50 μl.
Briefly, the COS7 cells, described above, that had been transfected with DNA encoding the ETB receptor and express the human ETB receptor on their surfaces were grown to confluence in T-175 flasks. Cells from multiple flasks were collected by scraping, pooled and centrifuged for 10 min at 190×g. The cells were resuspended in phosphate buffered saline (PBS) containing 10 mM EDTA using a Tenbroeck homogenizer. The suspension was centrifuged at 4° C. 57,800×g for 15 min, the pellet was resuspended in 5 ml of buffer A (5mM HEPES buffer, pH 7.4 containing aprotinin (100 KIU/ml)) and then frozen and thawed once. Five ml of Buffer B (5 mM HEPES Buffer, pH 7.4 containing 10 mM MnCl2 and 0.001% deoxyribonuclease Type 1) was added, the suspension mixed by inversion and then incubated at 37° C. for 30 minutes. The mixture was centrifuged at 57,800×g as described above, the pellet washed twice with buffer A and then resuspended in buffer C (30 mM HEPES buffer, pH 7.4 containing aprotinin (100 KIU/ml) to give a final protein concentration of 2 mg/ml.
The binding assay was performed as described above using the membrane preparation diluted to give 1 μg/50, μl of binding buffer.

For another assay, the system named is ETB receptors. The following applies: concentrations up to 100 μM; cited from earlier work.
The target of the next assay is ETA receptor. The note with it: cited from earlier work; for IC50: read-out: IC50, inhibition of 125I-labelled endothelin-1 binding.
The test system of the next assay is isolated vascular strips. The following applies: read-out: EC50, contractile agent; cited from earlier work.

Where two headings read alike, the source gives them in different places. Some results are limits rather than exact numbers.

Usually IC50 stands for the concentration needed to halve the response being measured. `Cc1noc(NS(=O)(=O)c2c(Cc3cccc4ccccc34)sc3ncccc23)c1Cl` [N-(4-chloro-3-methyl-5-isoxazolyl)-2-(1-naphthylmethyl)thieno[2,3-b]pyridine-3-sulfonamide]: the figures for the IC50 at human ETA receptors and on human ETB receptor were 34 nM and 560 nM, respectively.

Consider `Cc1ccc(Cc2sc3ncccc3c2S(=O)(=O)Nc2onc(C)c2Cl)c(C)c1` [N-(4-chloro-3-methyl-5-isoxazolyl)-2-(2,4-dimethylbenzyl)thieno[2,3-b]pyridine-3-sulfonamide], for which the IC50 was found to be 4.5 nM on human ETA receptors and 1500 nM on human ETB receptor.

For the compound `COc1cccc(OC)c1Cc1sc2ncccc2c1S(=O)(=O)Nc1onc(C)c1Cl` [N-(4-chloro-3-methyl-5-isoxazolyl)-2-(2,6-dimethoxybenzyl)thieno[2,3-b]pyridine-3-sulfonamide], the IC50 worked out at 650 nM at human ETA receptors and 10100 nM at human ETB receptor.

For the compound `Cc1noc(NS(=O)(=O)c2c(Cc3cc4c(cc3CCO)OCO4)sc3ncccc23)c1Cl` [N-(4-chloro-3-methyl-5-isoxazolyl)-2-[2-(2-hydroxyethyl)-4,5-(methylenedioxy)benzyl]thieno[2,3-b]pyridine-3-sulfonamide], the IC50 came out at 1.5 nM at human ETA receptors and 3600 nM at human ETB receptor.

Consider `Cc1cc2c(cc1Cc1sc3ncccc3c1S(=O)(=O)Nc1onc(C)c1Cl)OCO2` [N-(4-chloro-3-methyl-5-isoxazolyl)-2-[2-methyl-4,5-(methylene-dioxy)benzyl]thieno [2,3-b]pyridine-3-sulfonamide], for which the 50% inhibitory concentration (IC50) on human ETA receptors stood at 1.5 nM; at human ETB receptor it was 1600 nM.

Consider `Cc1noc(NS(=O)(=O)c2c(C(=O)c3ccc4c(c3)OCO4)sc3ncccc23)c1Cl` [N-(4-chloro-3-methyl-5-isoxazolyl)-2-[3,4-(methylenedioxy)benzoyl]-thieno [2,3-b]pyridine-3-sulfonamide], for which the concentration for half-maximal inhibition (IC50) on human ETA receptors was 960 nM; at human ETB receptor, 31000 nM.

In the case of `Cc1noc(NS(=O)(=O)c2c(Cc3ccc4c(c3)OCO4)sc3ncccc23)c1Cl` [N-(4-chloro-3-methyl-5-isoxazolyl)-2-[3,4-(methylenedioxy)benzyl]thieno [2,3-b]pyridine-3-sulfonamide], the IC50 on human ETA receptors was found to be 5.6 nM; at human ETB receptor, 2800 nM.

Turning to `Cc1noc(NS(=O)(=O)c2c(C(=O)CCc3ccc4c(c3)OCO4)sc3ncccc23)c1Cl` [N-(4-chloro-3-methyl-5-isoxazolyl)-2-[3-(3,4-methylenedioxyphenyl)-proponyl]thieno [2,3-b]pyridine-3-sulfonamide], the half-inhibitory concentration (IC50) at human ETA receptors came to 45 nM; on human ETB receptor it was 6600 nM.

As to `CCc1sc2ncccc2c1S(=O)(=O)Nc1onc(C)c1Cl` [N-(4-chloro-3-methyl-5-isoxazolyl)-2-ethylthieno[2,3-b]pyridine-3-sulfonamide], the values for the IC50 on human ETA receptors and at human ETB receptor were 68 nM and 39000 nM, respectively.

As for `Cc1noc(NS(=O)(=O)c2csc3ncccc23)c1Cl` [N-(4-chloro-3-methyl-5-isoxazolyl)thieno[2,3-b]pyridine-3-sulfonamide], the IC50 was 1800 nM on human ETA receptors and > 100000 nM at human ETB receptor.

Turning to `Cc1cc2c(cc1Cc1sc3ncccc3c1S(=O)(=O)Nc1noc(C)c1Cl)OCO2` [N-(4-chloro-5-methyl-3-isoxazolyl)-2-[2-methyl-4,5-(methylenedioxy)-benzyl]thieno[2,3-b]pyridine-3-sulfonamide], the IC50 stood at 1 nM at human ETA receptors and 500 nM on human ETB receptor.

With `CCc1sc2ncccc2c1S(=O)(=O)Nc1noc(C)c1Cl` [N-(4-chloro-5-methyl-3-isoxazolyl)-2-ethylthieno [2,3-b]pyridine-3-sulfonamide], the IC50 on human ETA receptors came out at 45 nM; on human ETB receptor, 30000 nM.

Take “cyclo(D-Glu-L-Ala-allo-D-llc-L-Leu-D-Trp) [BE-18257B]”: the “inhibition of binding to receptors in tissues in which ETB receptors predominate” value in the assay with ETB receptors is on record as “fails to inhibit binding”. Besides, the IC50 on ETA receptor (aortic smooth muscle) was 1400 nM; on ETA receptor (cultured aortic smooth muscle cells), 500 nM; on ETA receptor (ventricle membranes) it was 800 nM.

In general, EC50 refers to the midpoint of the concentration-response curve. Turning to “endothelin-1: potent twenty-one amino acid peptide vasoconstrictor”, the EC50 in the assay on isolated vascular strips is 0.4 nM. Moreover, the “potency of inhibition of 125I-labelled endothelin-1 binding relative to endothelin-3” value with ETA receptor (cardiovascular tissues) was “forty to seven hundred times more potently than endothelin-3”.

(Values after patent US6545014B2, “Method of treating glaucoma” (Texas Biotechnology Corporation, priority 1991, dated 2003).)
